Measured values taken from paper PMC3759162 (Cellular and molecular life sciences : CMLS, 2012).

How the values were obtained:
[1] = molecular target: T1, NSBP-1 (D2096.8; nematode sterol-binding protein 1) (Caenorhabditis elegans, UniProt Q19007); assay: competition with […] [3H]cholesterol on GST fusion protein
T1 sequence (Q19007 1-316): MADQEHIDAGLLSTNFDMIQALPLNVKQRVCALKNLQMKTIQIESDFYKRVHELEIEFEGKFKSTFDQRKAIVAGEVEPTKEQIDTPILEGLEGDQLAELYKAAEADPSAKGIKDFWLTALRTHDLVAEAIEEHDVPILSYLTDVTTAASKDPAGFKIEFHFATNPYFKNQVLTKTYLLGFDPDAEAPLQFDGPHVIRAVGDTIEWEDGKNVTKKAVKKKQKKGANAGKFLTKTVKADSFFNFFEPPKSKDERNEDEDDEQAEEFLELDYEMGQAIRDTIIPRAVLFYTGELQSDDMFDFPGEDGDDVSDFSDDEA

[2] = molecular target: T1, NSBP-1 (D2096.8; nematode sterol-binding protein 1)

| Compound | IC50 [1] [nM] | Kd [2] [nM] |
| --- | --- | --- |
| C[C@H](CCCC(C)(C)O)[C@H]1CC[C@H]2[C@@H]3CC=C4C[C@@H](O)CC[C@]4(C)[C@H]3CC[C@]12C [25-hydroxycholesterol] | ~630 |  |
| CC(C)CCC[C@@H](C)[C@H]1CC[C@H]2[C@@H]3CC=C4C[C@@H](O)CC[C@]4(C)[C@H]3CC[C@]12C [cholesterol] | 40 ± 5.6 | 87.5 ± 27.7 |
